# How the values were obtained:
# TGF-beta receptor type-1 [1] = target: T1, TGF-beta receptor type-1 (Homo sapiens, UniProt P36897); experiment: Inhibition of ALK5-mediated […]-induced Smad2/3 phosphorylation in human A549 cells preincubated for 2 hrs before addition of […] after 1 hr by fluorescence analysis; assay type: cell-based
# T1 sequence (P36897 whole entry): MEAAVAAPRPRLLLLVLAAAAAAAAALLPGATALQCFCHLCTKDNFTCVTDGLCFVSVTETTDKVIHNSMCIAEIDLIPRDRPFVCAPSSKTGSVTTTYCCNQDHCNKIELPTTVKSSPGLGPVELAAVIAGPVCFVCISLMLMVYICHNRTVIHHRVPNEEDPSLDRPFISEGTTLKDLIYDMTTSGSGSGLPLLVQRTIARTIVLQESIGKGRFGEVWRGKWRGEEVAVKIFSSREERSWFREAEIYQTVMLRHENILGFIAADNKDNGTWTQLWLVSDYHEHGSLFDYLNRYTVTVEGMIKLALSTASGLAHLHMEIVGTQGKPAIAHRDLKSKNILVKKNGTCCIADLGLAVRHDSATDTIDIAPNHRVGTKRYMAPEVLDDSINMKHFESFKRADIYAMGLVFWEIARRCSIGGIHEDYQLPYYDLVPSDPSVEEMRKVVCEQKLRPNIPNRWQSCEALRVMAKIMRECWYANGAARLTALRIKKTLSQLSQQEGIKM
# TGF-beta receptor type-1 [2] = target: T1, TGF-beta receptor type-1; experiment: Inhibition of human ALK5 using GST-tagged Smad3 as substrate assessed as substrate phosphorylation after 30 mins by ELISA
# [3] = Solubility of the compound by HPLC analysis; assay type: physicochemical
# [4] = target: Vascular endothelial growth factor receptor 2 (Homo sapiens, UniProt P35968); experiment: Inhibition of KDR
# Vascular endothelial growth factor receptor 2, sequence (P35968 whole entry): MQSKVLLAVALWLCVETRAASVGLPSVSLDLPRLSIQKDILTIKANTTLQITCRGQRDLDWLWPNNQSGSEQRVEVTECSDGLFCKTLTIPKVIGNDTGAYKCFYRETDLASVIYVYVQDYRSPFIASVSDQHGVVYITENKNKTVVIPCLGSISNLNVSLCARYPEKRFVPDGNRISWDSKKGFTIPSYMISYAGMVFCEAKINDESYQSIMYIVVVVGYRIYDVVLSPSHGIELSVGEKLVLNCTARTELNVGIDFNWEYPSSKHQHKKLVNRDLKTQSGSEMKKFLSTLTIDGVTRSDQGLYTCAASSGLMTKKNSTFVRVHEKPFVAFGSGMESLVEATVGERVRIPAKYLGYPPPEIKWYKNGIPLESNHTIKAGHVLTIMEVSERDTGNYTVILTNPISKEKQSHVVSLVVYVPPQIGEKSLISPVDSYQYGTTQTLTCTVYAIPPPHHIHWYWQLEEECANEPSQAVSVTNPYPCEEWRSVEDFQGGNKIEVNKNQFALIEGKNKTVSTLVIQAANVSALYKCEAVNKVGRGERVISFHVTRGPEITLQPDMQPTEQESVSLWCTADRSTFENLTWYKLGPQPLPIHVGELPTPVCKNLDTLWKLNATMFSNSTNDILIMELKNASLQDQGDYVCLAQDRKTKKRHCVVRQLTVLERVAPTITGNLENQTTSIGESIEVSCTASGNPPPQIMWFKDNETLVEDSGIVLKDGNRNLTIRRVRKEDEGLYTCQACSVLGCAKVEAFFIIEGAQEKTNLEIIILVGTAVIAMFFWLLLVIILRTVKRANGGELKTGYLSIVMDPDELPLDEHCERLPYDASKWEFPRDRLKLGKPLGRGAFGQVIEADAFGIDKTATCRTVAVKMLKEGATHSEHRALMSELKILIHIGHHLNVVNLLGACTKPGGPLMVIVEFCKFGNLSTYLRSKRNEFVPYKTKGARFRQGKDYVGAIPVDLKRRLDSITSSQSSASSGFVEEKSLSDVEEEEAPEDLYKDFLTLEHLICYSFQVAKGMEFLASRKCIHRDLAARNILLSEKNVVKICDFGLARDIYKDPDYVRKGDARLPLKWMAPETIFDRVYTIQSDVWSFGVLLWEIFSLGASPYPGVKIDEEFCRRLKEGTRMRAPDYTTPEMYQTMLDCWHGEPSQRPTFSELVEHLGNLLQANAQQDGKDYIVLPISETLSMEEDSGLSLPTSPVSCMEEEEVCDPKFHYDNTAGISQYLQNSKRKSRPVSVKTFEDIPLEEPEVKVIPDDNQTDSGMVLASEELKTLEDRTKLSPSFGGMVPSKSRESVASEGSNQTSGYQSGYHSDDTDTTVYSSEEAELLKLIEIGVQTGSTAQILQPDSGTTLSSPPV
# Mus musculus [5] = experiment: Inhibition of ALK5-mediated Smad2 phosphorylation in skin of C57BL/6 mouse depilation model at 3% administered topically measured after 8 hrs by Western blot analysis; assay type: functional
# Mus musculus [6] = experiment: Inhibition of ALK5-mediated Smad2 phosphorylation in skin of C57BL/6 mouse depilation model at 1% administered topically measured after 8 hrs by Western blot analysis; assay type: functional
SMILES,IC50 (TGF-beta receptor type-1 [1]),IC50 (TGF-beta receptor type-1 [2]),solubility [3],IC50 [4],inhibition (INH) (Mus musculus [5]),inhibition (INH) (Mus musculus [6])
Cc1csc(-c2nc(CC(C)C)[nH]c2-c2ccc3ncsc3c2)n1,43 nM,9 nM,,,,
Cc1csc(-c2nc(C(C)(C)C)[nH]c2-c2ccc3ncsc3c2)n1,68 nM,14 nM,3.49 mg/mL,,,
CCCC(=O)CCc1nc(-c2nc(C)cs2)c(-c2ccc3ncsc3c2)[nH]1,42 nM,9 nM,,,,
Cc1csc(-c2nc(CNC(=O)OCC(C)(C)C)[nH]c2-c2ccc3ncsc3c2)n1,79 nM,9.3 nM,,,,
CCCS(=O)(=O)NCc1nc(-c2nc(C)cs2)c(-c2ccc3ncsc3c2)[nH]1,150 nM,17 nM,,,,
Cc1csc(-c2nc(C(C)C)[nH]c2-c2ccc3ncsc3c2)n1,48 nM,8.2 nM,,,,
Cc1csc(-c2nc(C3CCC(=O)CC3)[nH]c2-c2ccc3ncsc3c2)n1,89 nM,23 nM,,,,
Cc1csc(-c2nc(C3CC3)[nH]c2-c2ccc3ncsc3c2)n1,45 nM,8.8 nM,23.6 mg/mL,,,
CCCOC(=O)NCc1nc(-c2nc(C)cs2)c(-c2ccc3ncsc3c2)[nH]1,36 nM,7.3 nM,9.8 mg/mL,,,
CC(=O)NCCCc1nc(-c2nc(C)cs2)c(-c2ccc3ncsc3c2)[nH]1,150 nM,26 nM,,,,
Cc1csc(-c2nc(C)[nH]c2-c2ccc3ncsc3c2)n1,17 nM,5.8 nM,18.3 mg/mL,,,
Cc1csc(-c2nc[nH]c2-c2ccc3ncsc3c2)n1,8.7 nM,2.7 nM,,,,
CCC(=O)NCCc1nc(-c2nc(C)cs2)c(-c2ccc3ncsc3c2)[nH]1,130 nM,25 nM,,,,
CCCCNC(=O)c1nc(-c2nc(C)cs2)c(-c2ccc3ncsc3c2)[nH]1,420 nM,45 nM,,,,
CNC(=O)CCCc1nc(-c2nc(C)cs2)c(-c2ccc3ncsc3c2)[nH]1,230 nM,37 nM,,,,
Cc1csc(-c2nc(CNC(=O)OC(C)C)[nH]c2-c2ccc3ncsc3c2)n1,41 nM,8.6 nM,18.2 mg/mL,,,
CCCc1nc(-c2nc(C)cs2)c(-c2ccc3ncsc3c2)[nH]1,33 nM,8.1 nM,14.9 mg/mL,,,
CCCCCCc1nc(-c2nc(C)cs2)c(-c2ccc3ncsc3c2)[nH]1,120 nM,7 nM,,,,
Cc1csc(-c2nc(CN3CCOC3=O)[nH]c2-c2ccc3ncsc3c2)n1,92 nM,8.1 nM,,,,

SMILES,IC50 (TGF-beta receptor type-1 [1]),IC50 (TGF-beta receptor type-1 [2]),solubility [3],IC50 [4],inhibition (INH) (Mus musculus [5]),inhibition (INH) (Mus musculus [6])
CCNC(=O)OCc1nc(-c2nc(C)cs2)c(-c2ccc3ncsc3c2)[nH]1,93 nM,7.2 nM,,,,
Cc1csc(-c2nc(C3CCCCC3)[nH]c2-c2ccc3ncsc3c2)n1,75 nM,12 nM,> 31.8 mg/mL,,,
CCCCOC(=O)NCc1nc(-c2nc(C)cs2)c(-c2ccc3ncsc3c2)[nH]1,74 nM,9.1 nM,,,,
Cc1csc(-c2nc(C3CCOCC3)[nH]c2-c2ccc3ncsc3c2)n1,99 nM,21 nM,26.1 mg/mL,,,
COC(=O)NCc1nc(-c2nc(C)cs2)c(-c2ccc3ncsc3c2)[nH]1,38 nM,7.7 nM,3.93 mg/mL,,,
Cc1csc(-c2nc(C3CCNCC3)[nH]c2-c2ccc3ncsc3c2)n1,,240 nM,,,,
CCCC(=O)N(C)Cc1nc(-c2ccc3ncsc3c2)c(-c2nc(C)cs2)[nH]1,110 nM,28 nM,,,,
Cc1csc(-c2[nH]c(CN3CCCC3=O)nc2-c2ccc3ncsc3c2)n1,130 nM,26 nM,,,,
Cc1csc(-c2nc(CCCCC(N)=O)[nH]c2-c2ccc3ncsc3c2)n1,190 nM,8.3 nM,,,,
Cc1csc(-c2nc(CNC(=O)OCC(C)C)[nH]c2-c2ccc3ncsc3c2)n1,36 nM,5.5 nM,,1080 nM,90%,59%
CCCCNCc1nc(-c2nc(C)cs2)c(-c2ccc3ncsc3c2)[nH]1,72 nM,13 nM,,,,
CCNC(=O)NCc1nc(-c2nc(C)cs2)c(-c2ccc3ncsc3c2)[nH]1,130 nM,11 nM,,,,
CCc1nc(-c2nc(C)cs2)c(-c2ccc3ncsc3c2)[nH]1,35 nM,9 nM,,,,
Cc1csc(-c2nc(C3CCCC3)[nH]c2-c2ccc3ncsc3c2)n1,40 nM,8.7 nM,19.8 mg/mL,,,
Cc1csc(-c2nc(C(F)(F)F)[nH]c2-c2ccc3ncsc3c2)n1,49 nM,5.8 nM,2.4 mg/mL,,,
CCCCCOC(=O)NCc1nc(-c2nc(C)cs2)c(-c2ccc3ncsc3c2)[nH]1,140 nM,11 nM,,,,
CCNC(=O)CCc1nc(-c2nc(C)cs2)c(-c2ccc3ncsc3c2)[nH]1,71 nM,12 nM,,,,
CCOC(=O)NCc1nc(-c2nc(C)cs2)c(-c2ccc3ncsc3c2)[nH]1,35 nM,4.5 nM,,,,
